In patent publication US12606541B2, “PPARg modulators and methods of use” (Eisai R&D Management Co., Ltd., priority 2020, dated 2026) one finds AC50 data, which are given here for 43 compounds.

The structures appear in SMILES notation. A value given as a limit tells only on which side of the number the result lay.

One experiment concerns the target T1, His6-TEV-PPARγ-(234-505) (Homo sapiens, UniProt P37231).
T1 construct: The His6-TEV-PPARγ-(234-505) protein for assay was expressed and purified; TEV cleavage site (N); made in house
T1 sequence (P37231 234-505): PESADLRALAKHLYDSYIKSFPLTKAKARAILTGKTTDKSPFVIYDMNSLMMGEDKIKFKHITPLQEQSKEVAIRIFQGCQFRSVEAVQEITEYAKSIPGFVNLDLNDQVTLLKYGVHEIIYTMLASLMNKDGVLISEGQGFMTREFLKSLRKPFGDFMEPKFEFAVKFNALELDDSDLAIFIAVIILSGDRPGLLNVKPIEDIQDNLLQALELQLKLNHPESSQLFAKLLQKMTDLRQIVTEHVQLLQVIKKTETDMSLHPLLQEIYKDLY
Nature of the experiment: TR-FRET Assay to Measure Co-R Peptide Recruitment to PPARγ. The format is biochemical. The following applies: Co-R peptide (SMRT-ID2) recruitment; top final concentration 20 μM; read-out: TR-FRET i-Ag; AC50. As for the experimental part:
TR-FRET Assay to Measure Co—R Peptide Recruitment to PPARγ
The 2× detection solution contained anti-6×His-Terbium antibody (CisBio) and FITC labeled Co—R peptide (SMRT-ID2 from New England Peptide) at final concentrations of 5 and 200 nM respectively.
In these assay plates, the positive control in column 24 contained 500 nM (final) T0070907 and the negative control in column 23 contained an identical volume of DMSO. Then, 5 μL of 2+ protein working stock or controls were added to the plate and incubated for 20 minutes at room temperature. Reagents additions were performed with either a Combi (Thermo) or Mantis (Formulatory) pipetting device. The incubation was followed by addition of 5 μL of the 2× detection solution. Plates were covered, centrifuged, and incubated for an additional hour. The TR-FRET data was recorded with an Envision plate reader (Perkin Elmer), using settings recommended by Thermo Fisher. The TR-FRET signal of the positive and negative control's recruitment of FITC-Co—R peptide was used to normalize the TR-FRET signal to percent response and to determine the assay Z prime. Experiments were performed in triplicate and analyzed in GraphPad Prism 7.
Background: In TR-FRET formats the signal depends on donor and acceptor labels being close together.
For the compound `CC1CCC(NC(=O)C2CCN(C(=O)c3cc(-c4ccncc4Cl)[nH]n3)CC2)CC1` (mixture of isomers) [Example 109, 1-(5-(3-chloropyridin-4-yl)-1H-pyrazole-3-carbonyl)-N-(4-methylcyclohexyl)piperidine-4-carboxamide], the AC50 stood at 373 nM.
The same measure, in the same setting: the result for `COc1cc(-c2cc(C(=O)N3C(C)CC(C(=O)NCc4cccc(Cl)c4)CC3C)n[nH]2)c(Cl)cn1` (mixture of isomers) [Example 274, 1-(5-(5-chloro-2-methoxypyridin-4-yl)-1H-pyrazole-3-carbonyl)-N-(3-chlorobenzyl)-2,6-dimethylpiperidine-4-carboxamide] reads 20 nM.

The experiment is the same for the next values; noted with them: Co-R peptide recruitment to PPARγ; read-out: TR-FRET AC50.
Turning to `C[C@H]1CC[C@H](NC(=O)C2CCN(C(=O)c3cc(-c4cccnc4)n[nH]3)CC2)CC1`, the AC50 was above 1000 nM.
`CCC1CCC(NC(=O)C2CCN(C(=O)c3cc(-c4ccnc(OC)c4)[nH]n3)CC2)CC1` (stereo not shown): the AC50 was above 1000 nM.
The same measure, in the same setting: the value for `COc1cc(-c2cc(C(=O)N3CCC(C(=O)N[C@H]4CC[C@H](C)CC4)CC3)n[nH]2)ccn1` was above 1000 nM; that for `COc1cc(-c2cc(C(=O)N3CCC(C(=O)N[C@H]4CC[C@](O)(C(F)(F)F)CC4)CC3)n[nH]2)c(Cl)cn1` was above 1000 nM.
The same measure, in the same setting: the result for `COc1cc(-c2cc(C(=O)N3CCC(C(=O)NC4CCC(C)(O)CC4)CC3)n[nH]2)c(Cl)cn1` (stereo not shown) reads above 1000 nM; that for `COc1cc(-c2cc(C(=O)N3CCC(C(=O)NC45COC(C)(C4)C5)CC3)n[nH]2)c(Cl)cn1`, above 1000 nM.
On the same count and under the same terms, the result for `COc1cc(-c2cc(C(=O)N3CCC(C(=O)N[C@H]4CC[C@@](C)(O)CC4)CC3)n[nH]2)c(Cl)cn1` reads above 1000 nM; that for `COc1cc(-c2cc(C(=O)N3CCC(C(=O)NC(C)c4cnn(C)c4)CC3)n[nH]2)c(Cl)cn1` (stereo not shown), above 1000 nM; that for `COc1cc(-c2cc(C(=O)N3CCC(C(=O)NC45CCC(O)(CC4)C5)CC3)n[nH]2)c(F)cn1`, above 1000 nM.
Take `COc1cc(-c2cc(C(=O)N3CCC(C(=O)NC4CCC5(CCCN5)CC4)CC3)n[nH]2)c(F)cn1` (stereo not shown): the AC50 is above 1000 nM.
Same read-out and setting: the value for `O=C(N[C@H]1CC[C@H](O)CC1)C1CCN(C(=O)c2cc(-c3ccncc3)[nH]n2)CC1` was above 1000 nM; that for `C[C@H]1CC[C@H](NC(=O)C2CCN(C(=O)c3cc(-c4ccncc4)[nH]n3)CC2)CC1` was above 1000 nM.
The same measure, in the same setting: the value for `CCC1CCC(NC(=O)C2CCN(C(=O)c3cc(-c4ccncc4)[nH]n3)CC2)CC1` (stereo not shown) was above 1000 nM; that for `O=C(NC1CCC(O)CC1)C1CCN(C(=O)c2cc(-c3ccncc3)[nH]n2)CC1` (stereo not shown) was above 1000 nM; that for `N#C[C@H]1CC[C@@H](NC(=O)C2CCN(C(=O)c3cc(-c4ccncc4)[nH]n3)CC2)CC1` was above 1000 nM.
The same measure, in the same setting: the result for `C[C@H]1CC[C@@H](NC(=O)C2CCN(C(=O)c3cc(-c4ccncc4)[nH]n3)CC2)CC1` reads above 1000 nM; that for `CN1CCN(C(=O)C2CCN(C(=O)c3cc(-c4ccncc4)[nH]n3)CC2)CC1`, above 1000 nM.
For the compound `CN1CCCN(C(=O)C2CCN(C(=O)c3cc(-c4ccncc4)[nH]n3)CC2)CC1`, the AC50 was above 1000 nM.
The same measure, in the same setting: the result for `CC1CCC(NC(=O)C2CCN(C(=O)c3cc(-c4ccnc(C(=O)O)c4)[nH]n3)CC2)CC1` (stereo not shown) reads above 1000 nM; that for `O=C(N[C@H]1CC[C@@](O)(C(F)(F)F)CC1)C1CCN(C(=O)c2cc(-c3cc(OC4COC4)ncc3F)[nH]n2)C2(CC2)C1` (stereo partly shown), above 1000 nM.
Same read-out and setting: the value for `COc1cc(-c2cc(C(=O)N3CC4CC3CC4C(=O)NC3CCC(O)(C(F)(F)F)CC3)n[nH]2)c(F)cn1` (stereo not shown) was above 1000 nM; that for `COc1cc(-c2cc(C(=O)N3C[C@@H]4[C@H](C3)[C@H]4C(=O)NCc3cccc(Cl)c3)n[nH]2)c(F)cn1` was above 1000 nM; that for `COc1cc(-c2cc(C(=O)N3CC[C@H](CNC(=O)[C@H]4C[C@@H](C)N[C@@H](C)C4)CC34CC4)n[nH]2)c(F)cn1` was above 1000 nM.
The same measure, in the same setting: the result for `COc1cc(-c2cc(C(=O)N3CC[C@H](C(=O)NCC45CC(CN4CC(C)(C)F)C5)CC34CC4)n[nH]2)c(F)cn1` reads above 1000 nM.
For `COc1cc(-c2cc(C(=O)N3CC[C@H](C(=O)NC4CCS(=N)(=O)CC4)CC34CC4)n[nH]2)c(F)cn1` (stereo partly shown), the AC50 was above 1000 nM.
Still for that read-out and setting: the result for `O=C(N[C@H]1CC[C@H](c2ccccc2)CC1)C1CCN(C(=O)c2cc(-c3ccncc3)[nH]n2)CC1` reads above 1000 nM.
The same measure, in the same setting: the value for `COc1cc(-c2cc(C(=O)N3CC[C@@H](C(=O)NC4CC[C@H](C(F)(F)F)N(C)C4)CC34CC4)n[nH]2)c(F)cn1` (mixture of isomers) [(7R)-4-[5-(5-fluoro-2-methoxypyridin-4-yl)-1H-pyrazole-3-carbonyl]-N-[(3RS,6R)-1-methyl-6-(trifluoromethyl)piperidin-3-yl]-4-azaspiro[2.5]octane-7-carboxamide] was above 1000 nM; that for `COc1cc(-c2cc(C(=O)N3C[C@H]4CC[C@@H]3CC4C(=O)NCc3cccc(Cl)c3)n[nH]2)c(F)cn1` (relative stereo) [(1R,4S,5R*)—N-[(3-chlorophenyl)methyl]-2-[5-(5-fluoro-2-methoxypyridin-4-yl)-1H-pyrazole-3-carbonyl]-2-azabicyclo[2.2.2]octane-5-carboxamide] was above 1000 nM; that for `COc1cc(-c2cc(C(=O)N3C[C@@H]4C[C@H]3CC4C(=O)NCc3cccc(Cl)c3)n[nH]2)c(F)cn1` (relative stereo) [(1S,4R,5R*)—N-[(3-chlorophenyl)methyl]-2-[5-(5-fluoro-2-methoxypyridin-4-yl)-1H-pyrazole-3-carbonyl]-2-azabicyclo[2.2.1]heptane-5-carboxamide] was above 1000 nM.
As to `COc1cc(-c2cc(C(=O)N3CCC(C(=O)NC4CC[C@H]5[C@H](CCN5C)C4)CC34CC4)n[nH]2)c(F)cn1` (relative stereo) [(7R*)—N-[(3aR,7aS)-1-methyl-octahydro-1H-indol-5-yl]-4-[5-(5-fluoro-2-methoxypyridin-4-yl)-1H-pyrazole-3-carbonyl]-4-azaspiro[2.5]octane-7-carboxamide], the AC50 was above 1000 nM.
The same measure, in the same setting: the value for `COc1cc(-c2cc(C(=O)N3CC[C@@]4(C(=O)NCc5cccc(Cl)c5)C[C@@H]34)n[nH]2)c(Cl)cn1` (relative stereo) [rel-(1R,5R)-2-[5-(5-chloro-2-methoxypyridin-4-yl)-1H-pyrazole-3-carbonyl]-N-[(3-chlorophenyl)methyl]-2-azabicyclo[3.1.0]hexane-5-carboxamide] was above 1000 nM.
Still for that read-out and setting: the result for `CCOc1cc(-c2cc(C(=O)N3CCC(C(=O)N[C@H]4CC[C@@](O)(C(F)(F)F)CC4)CC34CC4)n[nH]2)c(F)cn1` (single isomer, unassigned) reads above 1000 nM; that for `COc1cc(-c2cc(C(=O)N3C[C@H]4C[C@@H]3CC4C(=O)N[C@H]3CC[C@@](O)(C(F)(F)F)CC3)n[nH]2)c(F)cn1` (single isomer, unassigned), above 1000 nM.
Turning to `CCOc1cc(-c2cc(C(=O)N3CCC(C(=O)N[C@H]4CC[C@@](OC)(C(F)(F)F)CC4)CC34CC4)n[nH]2)c(F)cn1` (single isomer, unassigned), the AC50 was above 1000 nM.
The same measure, in the same setting: the result for `Cc1cc(-c2cc(C(=O)N3CCC(C(=O)N[C@H]4CC[C@@](O)(C(F)(F)F)CC4)CC34CC4)n[nH]2)c([C@@H](C)O)cn1` (single isomer, unassigned) reads above 1000 nM; that for `Cc1cc(-c2cc(C(=O)N3CCC(C(=O)N[C@H]4CC[C@@](O)(C(F)(F)F)CC4)CC34CC4)n[nH]2)c([C@H](C)O)cn1` (single isomer, unassigned), above 1000 nM; that for `CC(C)Oc1cc(-c2cc(C(=O)N3CCC(C(=O)N[C@H]4CC[C@@](O)(C(F)(F)F)CC4)CC34CC4)n[nH]2)c(F)cn1` (single isomer, unassigned), above 1000 nM.
Still for that read-out and setting: the value for `COc1cc(-c2cc(C(=O)N3CCC(C(=O)N[C@H]4CC[C@@]5(CCO5)CC4)CC34CC4)n[nH]2)c(F)cn1` (single isomer, unassigned) was above 1000 nM.
Still for that read-out and setting: the value for `CS(=O)(=O)CCN1CCN(C(=O)C2CCN(C(=O)c3cc(-c4ccncc4)[nH]n3)CC2)CC1` [1-(2-methanesulfonylethyl)-4-{1-[5-(pyridin-4-yl)-1H-pyrazole-3-carbonyl]piperidine-4-carbonyl}piperazine] was above 1000 nM.
With `CC1CCC(NC(=O)C2CCN(C(=O)c3cc(-c4ccnc(C#N)c4)[nH]n3)CC2)CC1` (stereo not shown) [1-[5-(2-cyanopyridin-4-yl)-1H-pyrazole-3-carbonyl]-N-(4-methylcyclohexyl)piperidine-4-carboxamide], the AC50 was above 1000 nM.
Same read-out and setting: the value for `CC1CCC(NC(=O)C2CCN(C(=O)c3cc(-c4ccnc(OC5CC5)c4)[nH]n3)CC2)CC1` (stereo not shown) [1-[5-(2-cyclopropoxypyridin-4-yl)-1H-pyrazole-3-carbonyl]-N-(4-methylcyclohexyl)piperidine-4-carboxamide] was above 1000 nM.
